The text below walks through data of ChEMBL document CHEMBL1201862, “PubChem BioAssay data set” (2004).

Series [1] concerns the target T1, Intestinal-type alkaline phosphatase (Homo sapiens, UniProt P09923). Kind of series: inhibition of human intestinal alkaline phosphatase – biochemical, luminescent, uHTS hits, set 2, dose response (AID 488793). It is filed as functional.
Series [2] has as its target T2, Intestinal-type alkaline phosphatase (Mus musculus, UniProt P24822). Briefly: PubChem AID 488874. It is filed as functional.
Series [3] deals with T3, Alkaline phosphatase, tissue-nonspecific isozyme (Homo sapiens, UniProt P05186).
T3 sequence (P05186 whole entry): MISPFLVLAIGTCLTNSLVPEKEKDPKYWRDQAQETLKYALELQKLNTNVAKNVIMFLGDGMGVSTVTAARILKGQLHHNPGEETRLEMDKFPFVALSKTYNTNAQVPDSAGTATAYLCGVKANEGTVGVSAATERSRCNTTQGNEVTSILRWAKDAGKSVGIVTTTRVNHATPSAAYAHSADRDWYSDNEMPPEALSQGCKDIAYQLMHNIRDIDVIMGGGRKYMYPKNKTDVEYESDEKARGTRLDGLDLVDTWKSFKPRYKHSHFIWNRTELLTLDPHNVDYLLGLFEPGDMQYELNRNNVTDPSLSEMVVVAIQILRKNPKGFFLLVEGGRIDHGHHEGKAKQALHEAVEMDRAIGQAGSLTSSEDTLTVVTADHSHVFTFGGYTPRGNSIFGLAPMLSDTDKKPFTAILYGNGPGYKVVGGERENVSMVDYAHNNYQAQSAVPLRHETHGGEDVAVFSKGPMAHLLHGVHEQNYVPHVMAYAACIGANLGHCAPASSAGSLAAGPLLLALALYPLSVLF
Kind of series: inhibition of tissue-nonspecific alkaline phosphatase – biochemical, dose response (AID 488882). It counts as functional.

In series [4] the target is T1, Intestinal-type alkaline phosphatase. Kind of series: Dose Response confirmation of uHTS hits from a small molecule inhibitors of human intestinal alkaline phosphatase via a luminescent assay. [Related pubchem assays (depositor defined):AID2544, AID2574]. It is filed as functional.
In series [5] the target is DNA dC->dU-editing enzyme APOBEC-3A (Homo sapiens, UniProt P31941). Kind of series: A3A deaminase inhibition for selectivity – biochemical, dose response (AID 504722). It counts as functional.
DNA dC->dU-editing enzyme APOBEC-3A, sequence (P31941 whole entry): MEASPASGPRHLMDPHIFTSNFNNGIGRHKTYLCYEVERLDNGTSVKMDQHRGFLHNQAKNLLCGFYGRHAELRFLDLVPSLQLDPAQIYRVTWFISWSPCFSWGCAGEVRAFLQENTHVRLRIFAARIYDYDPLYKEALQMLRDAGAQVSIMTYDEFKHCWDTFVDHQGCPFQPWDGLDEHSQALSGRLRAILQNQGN
For the next series, the target named is T4, Aspartyl aminopeptidase (Plasmodium falciparum 3D7, UniProt Q8I2J3).
T4 sequence (Q8I2J3 whole entry): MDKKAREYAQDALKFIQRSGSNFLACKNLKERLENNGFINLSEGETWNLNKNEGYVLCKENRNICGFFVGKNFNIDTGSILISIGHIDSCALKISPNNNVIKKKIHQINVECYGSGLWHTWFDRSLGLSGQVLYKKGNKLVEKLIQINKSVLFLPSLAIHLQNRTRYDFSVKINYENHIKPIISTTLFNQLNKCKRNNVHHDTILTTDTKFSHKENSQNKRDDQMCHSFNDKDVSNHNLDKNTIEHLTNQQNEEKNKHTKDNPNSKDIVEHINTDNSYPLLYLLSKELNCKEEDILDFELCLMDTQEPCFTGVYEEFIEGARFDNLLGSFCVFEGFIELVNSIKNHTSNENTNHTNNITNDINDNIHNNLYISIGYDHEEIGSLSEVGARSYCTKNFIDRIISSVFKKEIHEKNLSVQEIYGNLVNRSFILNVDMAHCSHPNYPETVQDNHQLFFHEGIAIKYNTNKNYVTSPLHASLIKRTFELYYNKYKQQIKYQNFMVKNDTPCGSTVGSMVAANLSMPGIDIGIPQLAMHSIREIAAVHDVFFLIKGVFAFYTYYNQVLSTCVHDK
Briefly: Counterscreen for inhibitors of M1 and M17 aminopeptidases: QFRET-based biochemical high throughput dose response assay for inhibitors of the Plasmodium falciparum M18 Aspartyl Aminopeptidase (PFM18AAP). [Related PubChem assays: 1619 (Screening assay (M17LAP inhibitors).), 1445 (Screening assay (M1AAP inhibitors).)]. A general note: The purpose of a counterscreen is to sort out artefacts and off-target activity.

A further series concerns the target Phosphomannomutase 2 (Homo sapiens, UniProt O15305). Briefly: Counter screen SAR assay for PMM2 inhibitors via a fluorescence intensity assay. [Related pubchem assays (depositor defined):AID1545, AID1574].
The subject of a further series is Escherichia coli. Briefly: microbe, parasite or virus in culture.
In the next series the target is T5, Leucine aminopeptidase (Plasmodium falciparum 3D7, UniProt Q8IL11).
T5 sequence (Q8IL11 whole entry): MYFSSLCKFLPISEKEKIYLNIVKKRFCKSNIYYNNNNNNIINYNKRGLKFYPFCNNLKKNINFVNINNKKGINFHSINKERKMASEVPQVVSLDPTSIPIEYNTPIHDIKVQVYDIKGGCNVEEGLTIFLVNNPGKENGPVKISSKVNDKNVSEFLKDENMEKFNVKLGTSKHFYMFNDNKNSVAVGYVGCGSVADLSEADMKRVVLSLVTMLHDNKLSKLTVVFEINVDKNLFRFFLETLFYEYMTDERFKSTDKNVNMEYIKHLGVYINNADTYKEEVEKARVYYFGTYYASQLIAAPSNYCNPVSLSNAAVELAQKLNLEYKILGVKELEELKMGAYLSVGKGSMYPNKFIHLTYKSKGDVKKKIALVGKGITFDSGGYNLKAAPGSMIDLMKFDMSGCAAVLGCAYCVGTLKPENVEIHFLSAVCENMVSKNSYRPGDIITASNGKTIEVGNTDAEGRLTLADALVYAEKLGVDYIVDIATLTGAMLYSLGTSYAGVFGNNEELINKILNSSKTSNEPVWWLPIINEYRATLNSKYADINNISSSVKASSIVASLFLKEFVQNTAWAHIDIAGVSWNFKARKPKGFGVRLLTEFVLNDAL
Briefly: P. falciparum M17LAP inhibitors, primary screen, biochemical, fluorogenic H-Leu-NHMec substrate, 1536-well (AID 1619). It is filed as functional.

In a further series the target is Procathepsin L (Homo sapiens, UniProt P07711). Briefly: CTSL1 protease inhibition – biochemical, QFRET, 1536-well, counter-screen for M1/M17 aminopeptidase inhibitor project, dose response (AID 2214).
Procathepsin L, sequence (P07711 whole entry): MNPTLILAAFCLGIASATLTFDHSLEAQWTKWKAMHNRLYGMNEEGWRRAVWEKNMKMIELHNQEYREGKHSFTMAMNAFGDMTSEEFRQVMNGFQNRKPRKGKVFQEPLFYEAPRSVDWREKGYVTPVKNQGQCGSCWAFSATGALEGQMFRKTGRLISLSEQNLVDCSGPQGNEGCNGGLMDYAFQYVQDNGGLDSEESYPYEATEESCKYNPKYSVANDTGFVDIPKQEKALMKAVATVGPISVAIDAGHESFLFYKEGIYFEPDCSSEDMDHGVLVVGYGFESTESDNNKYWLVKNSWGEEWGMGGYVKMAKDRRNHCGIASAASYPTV
Series [6] deals with T6, Mannose-6-phosphate isomerase (Homo sapiens, UniProt P34949).
T6 sequence (P34949 whole entry): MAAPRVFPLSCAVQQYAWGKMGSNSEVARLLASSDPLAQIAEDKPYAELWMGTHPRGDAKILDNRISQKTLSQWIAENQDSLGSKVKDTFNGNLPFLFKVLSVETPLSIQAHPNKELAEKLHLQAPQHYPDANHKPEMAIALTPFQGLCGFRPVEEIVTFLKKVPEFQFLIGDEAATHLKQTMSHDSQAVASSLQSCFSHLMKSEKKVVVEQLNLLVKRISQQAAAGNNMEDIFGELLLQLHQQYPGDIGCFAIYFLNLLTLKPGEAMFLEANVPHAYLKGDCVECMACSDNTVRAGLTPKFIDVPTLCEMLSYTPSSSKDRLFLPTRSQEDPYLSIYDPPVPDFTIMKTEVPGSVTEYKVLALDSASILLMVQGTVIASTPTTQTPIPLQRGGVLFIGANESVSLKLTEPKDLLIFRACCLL
Briefly: phosphomannose isomerase inhibition – biochemical, fluorescence intensity, confirmation (AID 1535).

The target of a further series is Cytochrome P450 2C19 (Homo sapiens, UniProt P33261). Kind of series: Cytochrome panel assay with activity outcomes. Panel member name: p450-cyp2c19 Compounds with AC50 equal or less than 10 uM are considered active. It is filed as functional.
Cytochrome P450 2C19, sequence (P33261 whole entry): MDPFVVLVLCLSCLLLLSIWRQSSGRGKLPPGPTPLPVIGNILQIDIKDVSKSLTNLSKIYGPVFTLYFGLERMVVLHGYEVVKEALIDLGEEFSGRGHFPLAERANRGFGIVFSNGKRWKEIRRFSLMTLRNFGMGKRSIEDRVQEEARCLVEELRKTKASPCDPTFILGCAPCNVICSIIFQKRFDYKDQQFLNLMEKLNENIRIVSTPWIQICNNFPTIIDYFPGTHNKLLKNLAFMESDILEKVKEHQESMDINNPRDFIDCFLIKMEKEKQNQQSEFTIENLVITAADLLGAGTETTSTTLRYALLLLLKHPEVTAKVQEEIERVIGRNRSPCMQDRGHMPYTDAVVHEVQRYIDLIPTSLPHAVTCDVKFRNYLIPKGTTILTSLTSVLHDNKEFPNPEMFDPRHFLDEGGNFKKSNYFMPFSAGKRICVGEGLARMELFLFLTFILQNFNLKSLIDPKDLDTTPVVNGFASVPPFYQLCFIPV
The target of the next series is T7, Cytochrome P450 1A2 (Homo sapiens, UniProt P05177).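 Further: PubChem cytochrome P450 panel assay, CYP1A2 panel member.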
T7 sequence (P05177 whole entry): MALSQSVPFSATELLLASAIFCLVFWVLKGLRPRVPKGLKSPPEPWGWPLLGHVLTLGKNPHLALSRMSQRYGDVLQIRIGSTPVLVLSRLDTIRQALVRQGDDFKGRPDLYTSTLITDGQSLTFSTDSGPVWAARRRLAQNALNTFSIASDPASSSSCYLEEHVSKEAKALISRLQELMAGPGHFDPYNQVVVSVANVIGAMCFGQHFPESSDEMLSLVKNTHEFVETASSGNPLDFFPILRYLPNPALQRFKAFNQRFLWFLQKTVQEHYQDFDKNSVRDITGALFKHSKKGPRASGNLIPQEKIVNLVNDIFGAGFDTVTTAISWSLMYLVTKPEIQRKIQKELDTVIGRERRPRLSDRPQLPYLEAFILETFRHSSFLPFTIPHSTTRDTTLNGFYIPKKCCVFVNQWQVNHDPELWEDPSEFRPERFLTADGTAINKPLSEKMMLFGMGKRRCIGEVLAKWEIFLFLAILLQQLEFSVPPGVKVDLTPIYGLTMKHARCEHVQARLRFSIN

Series [7] addresses T8, SUMO-activating enzyme (Homo sapiens, UniProt Q9UBT2). Kind of series: blockers of UBC9-mediated SUMO conjugation – biochemical, AlphaScreen, SUMOylation inhibitor project, confirmation (AID 2018). It counts as functional.
Series [8] deals with T8, SUMO-activating enzyme. Kind of series: blockers of SAE1/SAE2–UBC9 SUMO transfer – biochemical, HTRF, uHTS, primary screen (AID 2006). It is filed as protein-complex assay. Background: Time-resolved FRET reads energy transfer from a long-lived donor to a nearby acceptor.
Another series has as its target SUMO E1/E2 (Homo sapiens, UniProt P63279+Q9UBE0+Q9UBT2). Kind of series: SAR analysis of SUMOylation using HTRF in an in-Vitro dose response assay. [Related pubchem assays (depositor defined):AID2006, AID2011, AID2018, AID2069, AID2658]. It counts as functional.
A short description of series [9]: Counterscreen for AddAB inhibitors: absorbance-based bacterial cell-based high throughput dose response assay for inhibitors of bacterial viability. [Related pubchem assays (depositor defined):AID435030, AID449728, AID449731, AID488942, AID488955, AID488956]. It is filed as functional.
For another series, the target named is Exodeoxyribonuclease V (Escherichia coli (strain K12), UniProt P04993+P07648+P08394). Kind of series: RecBCD inhibition via phage-restricted bacterial growth – absorbance, V66 E. coli, mutant T4 phage, counter-screen for AddAB inhibitor project, dose response (AID 492957). It is filed as functional, cell-based, Escherichia coli str. K-12 substr. MG1655.
In a further series the test system is H9c2. Kind of series: cells. It is filed as functional, cell-based. Conditions: Rattus norvegicus, H9c2, Myocardium.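 Further: confirmatory concentration-response retest of ultra-high-throughput screening hits for modulation of myocardial damage; cell death induced by hydrogen peroxide oxidative stress; compound pretreatment for 60 min then peroxide exposure for 2 h; potency is for protecting the cells against peroxide damage rather than for killing them.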
The next series has as its target Cytochrome P450 2D6 (Homo sapiens, UniProt P10635).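 Further: CYP2D6 member of a cytochrome P450 panel assay.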
The next series has as its target Cytochrome P450 3A4 (Homo sapiens, UniProt P08684).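 Further: CYP3A4 tested as one member of a cytochrome P450 panel screen.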
Series [10] has as its target T1, Intestinal-type alkaline phosphatase. Briefly: activation of human intestinal alkaline phosphatase – biochemical, luminescent, uHTS hits, set 2, dose response (AID 488817).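 Further: potency of activators that raise enzyme activity.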 It counts as functional.
Series [11] has the same target. Briefly: human intestinal alkaline phosphatase activators, dose response, biochemical, luminescence, uHTS hits (AID 463120). It counts as functional.
In series [12] the target is T3, Alkaline phosphatase, tissue-nonspecific isozyme. Kind of series: activation of tissue-nonspecific alkaline phosphatase – biochemical, TNAP isozyme, human IAP uHTS hits, selectivity assay for human IAP activator project, dose response (AID 488886).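 Further: potency of compounds raising TNAP activity as a selectivity check on IAP activators.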 It is filed as functional.
Series [13] addresses T2, Intestinal-type alkaline phosphatase. Kind of series: PubChem AID 488875. It counts as functional.
The nature of series [14]: T. cruzi infection blockers in NIH3T3 cells – beta-gal luminescence, NIH3T3 host cells, confirmation (AID 2630). It counts as functional, cell-based. The following applies: Mus musculus.

Activity calls are given as the source filed them.

T1 sequence (P09923 whole entry): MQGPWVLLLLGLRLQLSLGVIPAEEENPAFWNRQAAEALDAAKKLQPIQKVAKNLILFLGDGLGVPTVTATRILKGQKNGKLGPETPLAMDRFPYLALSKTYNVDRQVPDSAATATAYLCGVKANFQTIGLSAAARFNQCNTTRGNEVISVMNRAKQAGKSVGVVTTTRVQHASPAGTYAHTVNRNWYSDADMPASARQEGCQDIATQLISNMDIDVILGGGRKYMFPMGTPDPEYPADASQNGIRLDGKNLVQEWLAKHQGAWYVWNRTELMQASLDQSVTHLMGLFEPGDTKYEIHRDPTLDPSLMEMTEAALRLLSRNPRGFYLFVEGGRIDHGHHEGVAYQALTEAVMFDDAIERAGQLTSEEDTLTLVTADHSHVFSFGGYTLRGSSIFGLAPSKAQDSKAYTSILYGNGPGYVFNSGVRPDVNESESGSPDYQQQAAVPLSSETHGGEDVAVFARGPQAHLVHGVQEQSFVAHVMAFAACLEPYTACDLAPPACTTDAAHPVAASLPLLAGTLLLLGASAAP
T8 sequence (Q9UBE0 whole entry): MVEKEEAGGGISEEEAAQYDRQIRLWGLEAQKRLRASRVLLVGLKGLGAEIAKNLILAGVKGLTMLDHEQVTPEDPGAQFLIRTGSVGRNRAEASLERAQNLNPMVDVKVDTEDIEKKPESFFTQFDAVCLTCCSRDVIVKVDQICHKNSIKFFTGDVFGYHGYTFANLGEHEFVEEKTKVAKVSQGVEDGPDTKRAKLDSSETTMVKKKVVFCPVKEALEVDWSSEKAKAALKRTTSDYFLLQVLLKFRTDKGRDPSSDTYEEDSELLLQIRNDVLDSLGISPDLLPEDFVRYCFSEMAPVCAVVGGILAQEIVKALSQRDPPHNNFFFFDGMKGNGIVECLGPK
T8 sequence (Q9UBT2 whole entry): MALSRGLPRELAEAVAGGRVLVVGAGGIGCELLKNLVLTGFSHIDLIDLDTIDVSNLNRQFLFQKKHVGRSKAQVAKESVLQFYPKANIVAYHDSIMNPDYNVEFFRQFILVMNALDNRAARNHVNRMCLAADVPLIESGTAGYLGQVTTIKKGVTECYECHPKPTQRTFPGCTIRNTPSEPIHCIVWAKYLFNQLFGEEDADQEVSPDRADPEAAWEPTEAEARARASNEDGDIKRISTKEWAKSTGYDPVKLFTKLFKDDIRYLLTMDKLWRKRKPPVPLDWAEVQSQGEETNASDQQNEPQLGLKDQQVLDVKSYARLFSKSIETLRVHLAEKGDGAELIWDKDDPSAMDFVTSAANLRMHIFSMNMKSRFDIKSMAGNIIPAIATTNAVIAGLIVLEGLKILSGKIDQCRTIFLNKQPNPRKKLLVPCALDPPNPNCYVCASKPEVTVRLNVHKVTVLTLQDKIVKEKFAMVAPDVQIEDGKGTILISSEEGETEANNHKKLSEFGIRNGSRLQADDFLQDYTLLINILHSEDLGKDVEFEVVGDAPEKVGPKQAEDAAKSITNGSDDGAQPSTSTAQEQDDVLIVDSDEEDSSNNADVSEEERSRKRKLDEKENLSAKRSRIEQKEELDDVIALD
T2 sequence (P24822 whole entry): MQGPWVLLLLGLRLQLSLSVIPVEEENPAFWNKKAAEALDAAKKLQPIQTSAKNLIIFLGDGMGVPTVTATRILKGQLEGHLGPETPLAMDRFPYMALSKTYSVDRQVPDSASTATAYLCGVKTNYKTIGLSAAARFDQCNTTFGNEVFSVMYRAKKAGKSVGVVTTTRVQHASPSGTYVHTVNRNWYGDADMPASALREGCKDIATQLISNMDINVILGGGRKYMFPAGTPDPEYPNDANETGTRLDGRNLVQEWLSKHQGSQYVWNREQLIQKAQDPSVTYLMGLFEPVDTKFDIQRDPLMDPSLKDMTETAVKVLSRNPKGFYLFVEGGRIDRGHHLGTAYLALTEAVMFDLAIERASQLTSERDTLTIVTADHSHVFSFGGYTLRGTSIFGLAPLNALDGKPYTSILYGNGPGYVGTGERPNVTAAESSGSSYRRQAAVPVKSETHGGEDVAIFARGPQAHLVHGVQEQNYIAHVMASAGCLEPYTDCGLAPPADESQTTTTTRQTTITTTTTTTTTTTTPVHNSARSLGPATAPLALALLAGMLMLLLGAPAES
SUMO E1/E2, sequence (Q9UBE0 whole entry): as the sequence (Q9UBE0 whole entry) above
SUMO E1/E2, sequence (Q9UBT2 whole entry): as the sequence (Q9UBT2 whole entry) above
SUMO E1/E2, sequence (P63279 whole entry): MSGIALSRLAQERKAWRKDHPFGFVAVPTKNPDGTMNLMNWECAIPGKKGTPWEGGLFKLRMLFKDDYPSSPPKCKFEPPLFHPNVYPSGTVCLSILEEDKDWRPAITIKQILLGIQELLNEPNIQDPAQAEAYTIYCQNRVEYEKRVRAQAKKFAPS
Cytochrome P450 2D6, sequence (P10635 whole entry): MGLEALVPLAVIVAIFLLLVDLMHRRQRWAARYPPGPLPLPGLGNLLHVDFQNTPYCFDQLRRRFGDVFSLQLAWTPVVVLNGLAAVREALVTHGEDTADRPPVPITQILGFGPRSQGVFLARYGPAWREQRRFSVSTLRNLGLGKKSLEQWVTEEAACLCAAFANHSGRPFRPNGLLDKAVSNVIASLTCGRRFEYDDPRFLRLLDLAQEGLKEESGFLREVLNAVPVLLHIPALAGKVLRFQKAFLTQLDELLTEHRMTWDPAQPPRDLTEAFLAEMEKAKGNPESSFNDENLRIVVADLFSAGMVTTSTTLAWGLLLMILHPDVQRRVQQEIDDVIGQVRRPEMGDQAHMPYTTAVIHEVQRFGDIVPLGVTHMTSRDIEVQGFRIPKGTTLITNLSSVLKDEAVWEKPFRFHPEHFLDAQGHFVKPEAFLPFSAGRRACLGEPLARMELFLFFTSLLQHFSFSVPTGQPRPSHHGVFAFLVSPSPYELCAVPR
Cytochrome P450 3A4, sequence (P08684 whole entry): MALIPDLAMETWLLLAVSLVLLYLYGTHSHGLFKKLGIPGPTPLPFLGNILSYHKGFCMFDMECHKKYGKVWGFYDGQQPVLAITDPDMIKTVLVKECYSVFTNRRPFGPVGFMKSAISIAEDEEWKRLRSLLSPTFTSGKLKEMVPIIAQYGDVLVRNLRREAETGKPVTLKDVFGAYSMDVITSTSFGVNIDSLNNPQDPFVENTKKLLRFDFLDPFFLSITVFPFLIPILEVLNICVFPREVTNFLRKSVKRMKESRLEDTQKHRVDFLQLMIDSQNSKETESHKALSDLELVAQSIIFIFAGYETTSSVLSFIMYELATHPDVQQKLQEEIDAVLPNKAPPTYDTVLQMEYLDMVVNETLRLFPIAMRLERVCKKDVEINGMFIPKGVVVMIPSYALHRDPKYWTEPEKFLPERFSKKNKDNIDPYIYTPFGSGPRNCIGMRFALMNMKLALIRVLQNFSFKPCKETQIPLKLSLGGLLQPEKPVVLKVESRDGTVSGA
Phosphomannomutase 2, sequence (O15305 whole entry): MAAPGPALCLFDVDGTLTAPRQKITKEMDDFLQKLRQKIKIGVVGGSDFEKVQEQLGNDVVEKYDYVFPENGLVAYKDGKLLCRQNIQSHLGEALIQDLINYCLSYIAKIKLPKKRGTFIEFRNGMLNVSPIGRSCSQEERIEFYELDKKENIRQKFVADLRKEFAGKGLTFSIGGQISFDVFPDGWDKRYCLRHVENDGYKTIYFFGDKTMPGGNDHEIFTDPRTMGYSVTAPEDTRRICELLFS

`c1ccc(CSCCc2ccncc2)cc1`: the IC50 (in general, the midpoint of a concentration-inhibition curve) in series [1] is 23.4 µM (active); in series [2] it was > 100 µM (inactive); in series [3] it was 47.9 µM (active); in [4], 23.1 µM (inactive).
In the case of `Sc1n[nH]c(-c2ccccc2Br)n1`, the IC50 was > 100 µM (inactive) in series [5]; 19.3 µM (not active) at Aspartyl aminopeptidase; > 100 µM (inactive) on Phosphomannomutase 2; 4.67 µM (active) at Leucine aminopeptidase; > 59.6 µM (not active) on Procathepsin L; 37.6 µM (active) in series [6]. Further, the AC50 (commonly the concentration giving half of the maximal activity seen) in the series with Escherichia coli was 30.2 µM (active).
In the case of `CCOC(=O)[C@H](CCc1ccccc1)N[C@@H](C)C(=O)N1[C@H](C(=O)O)C[C@H]2CCC[C@@H]21`, the AC50 entry on Cytochrome P450 2C19 and at Cytochrome P450 1A2 was “inactive” in each case.
In the case of `COc1cc(C2c3c(oc4ccccc4c3=O)C(=O)N2c2nccs2)ccc1O` (stereo unspecified), the IC50 on SUMO-activating enzyme [7] is 12.7 µM (active); at SUMO-activating enzyme [8], 36 µM (active); at SUMO E1/E2 it was 81.5 µM (active).
For the compound `O=C1c2ccccc2NC(c2ccc(-c3cccc([N+](=O)[O-])c3)o2)N1O` (stereo unspecified), the IC50 is > 119 µM (inactive) in series [9], > 119 µM (inactive) at Exodeoxyribonuclease V and 11.9 µM (active) in the series with H9c2.
With `O=C(c1cccc(F)c1)N1CCC2(CC1)CCN(c1ccccn1)CC2`, the results for the AC50 on Cytochrome P450 2D6 and on Cytochrome P450 3A4 were 20 µM (inconclusive) and “inconclusive”, respectively.
As for `COc1cc(OC)cc(C(=O)NNC(=O)c2nn(C)c(=O)c3ccccc23)c1`, the EC50 (as a rule, the concentration that produces a half-maximal response) in series [10] was 12.4 µM (active); in [11], 11.8 µM (active); in series [12] it was 11.8 µM (active); in series [13], > 100 µM (inactive).
Regarding `CCn1cc(CN2CCCC(C(=O)c3cccc(C(F)(F)F)c3)C2)cn1` (stereo unspecified), the EC50 in series [14] is 0.25 µM (active).
